In the test the target is T1, human FXR (NR1H4) (Homo sapiens, UniProt Q96RI1).
T1 construct: host or cells: CHO (Chinese hamster ovary) reporter cells
T1 sequence (Q96RI1 1-486): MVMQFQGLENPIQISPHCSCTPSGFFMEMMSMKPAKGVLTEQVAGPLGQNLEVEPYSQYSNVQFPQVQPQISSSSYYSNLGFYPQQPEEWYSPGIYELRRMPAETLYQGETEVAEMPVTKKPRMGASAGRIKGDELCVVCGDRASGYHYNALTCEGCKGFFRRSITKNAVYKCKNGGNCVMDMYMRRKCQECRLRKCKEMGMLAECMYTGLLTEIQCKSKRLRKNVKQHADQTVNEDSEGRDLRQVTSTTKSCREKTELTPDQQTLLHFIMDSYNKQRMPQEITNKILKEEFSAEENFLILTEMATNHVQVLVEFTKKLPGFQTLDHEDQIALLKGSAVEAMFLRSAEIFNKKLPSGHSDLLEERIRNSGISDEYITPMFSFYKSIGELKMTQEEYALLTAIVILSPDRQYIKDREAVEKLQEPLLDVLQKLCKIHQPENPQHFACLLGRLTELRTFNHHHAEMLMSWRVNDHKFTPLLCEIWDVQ
Kind of test: Human FXR (NR1H4) Assay (Gal4 promoter driven luciferase reporter assay in CHO cells). It is filed as cell-based. To be noted: for EC50: CHO cells expressing human NR1H4, 22 hours incubation, potency ranges; for Emax: efficacy normalized to CDCA set as 100%, CHO cells expressing human NR1H4. The text has this:
Determination of a ligand mediated Gal4 promoter driven transactivati on to quantify ligand binding mediated activation of FXR. FXR Reporter Assay kit purchased from Indigo Bioscience (Catalogue number: IB00601) to determine the potency and efficacy of compound developed by Enanta that can induce FXR activation. The principle application of this reporter assay system is to quantify functional activity of human FXR. The assay utilizes non-human mammalian cells, CHO (Chinese hamster ovary) cells engineered to express human NR1H4 protein (referred to as FXR). Reporter cells also incorporate the cDNA encoding beetle luciferase which catalyzes the substrates and yields photon emission. Luminescence intensity of the reaction is quantified using a plate-reading luminometer, Envision. Reporter Cells include the luciferase reporter gene functionally linked to an FXR responsive promoter. Thus, quantifying changes in luciferase expression in the treated reporter cells provides a sensitive surrogate measure of the changes in FXR activity. EC50 and efficacy (normalize to CDCA set as 100%) is determined by XLFit. The assay is according to the manufacturer's instructions. In brief, the assay was performed in white, 96 well plates using final volume of 100 ul containing cells with different doses of compounds. Retrieve Reporter Cells from −80° C. storage. Perform a rapid thaw of the frozen cells by transferring a 10 ml volume of 37° C. cell recovery medium into the tube of frozen cells. Recap the tube of Reporter Cells and immediately place it in a 37° C. water bath for 5-10 minutes. Retrieve the tube of Reporter Cell Suspension from the water bath. Sanitize the outside surface of the tube with a 70% alcohol swab, and then transfer it into the cell culture hood. Dispense 90 μl of cell suspension into each well of the 96-well Assay Plate. Transfer the plate into 37° C. incubator, allowing the cells adherent to the bottom of the well. Dilute compounds in Dilution Plate (DP), and administrate to cells at Assay Plate (AP). DMSO content of the samples was kept at 0.2%. Cells were incubated for additional 22 hours before luciferase activities were measured. Thirty minutes before intending to quantify FXR activity, remove Detection Substrate and Detection Buffer from the refrigerator and place them in a low-light area so that they may equilibrate to room temperature. Remove the plate's lid and discard all media contents by ejecting it into an appropriate waste container. Gently tap the inverted plate onto a clean absorbent paper towel to remove residual droplets. Cells will remain tightly adhered to well bottoms. Add 100 μl of luciferase detection reagent to each well of the assay plate. Allow the assay plate to rest at room temperature for at least 5 minutes following the addition of LDR. Set the instrument (Envision) to perform a single 5 second “plate shake” prior to reading the first assay well. Read time may be 0.5 second (500 mSec) per well. EC50 and Efficacy (normalize to CDCA set as 100%) is determined by XLFit.
The efficacy was normalized to CDCA set as 100%. (A=EC50<0.1 μM; B=0.1 μM<EC50<1.0 μM; C=1.0 μM<EC50<10 μM; D=EC50>10 μM).

Where only a bound is given, the exact number is not on record here.

Data on 18 compounds can be found in patent US10829486B2, “Isoxazole derivatives as FXR agonists and methods of use thereof” (ENANTA PHARMACEUTICALS, INC., priority 2018, dated 2020).

For the compound `CC(C)Oc1cc(C(=O)O)cc2sc(N(C)[C@@H]3CC[C@H](OCc4c(-c5c(Cl)cccc5Cl)noc4C4CC4)C3)nc12` [Example 1], the EC50 (commonly the midpoint of the concentration-response curve) is below 100 nM and the Emax (as a rule, the greatest response seen or fitted, relative to the assay's reference) came out at 96%.
For `CC(C)Oc1cc(C(=O)O)cc2sc(N(C)[C@H]3CC[C@@H](OCc4c(-c5c(Cl)cccc5Cl)noc4C4CC4)C3)nc12` [Example 2], the EC50 was below 100 nM and the Emax worked out at 75%.
For `CC(C)Oc1cc(C(=O)O)cc2sc(N(C)[C@H]3CC[C@H](OCc4c(-c5c(Cl)cccc5Cl)noc4C4CC4)C3)nc12` [Example 3], in that order: 100 to 1000 nM and 58%.
The compound `CC(C)Oc1cc(C(=O)O)cc2sc(N(C)[C@@H]3CC[C@@H](OCc4c(-c5c(Cl)cccc5Cl)noc4C4CC4)C3)nc12` [Example 4] had an EC50 of 100 to 1000 nM and an Emax of 73%.
For `CC(C)Oc1cc(C(=O)O)cc2sc(N(C)[C@H]3CC[C@H](OCc4c(-c5c(Cl)cccc5Cl)noc4C4CC4)CC3)nc12` [Example 5], in that order: below 100 nM and 85%.
For `CC(C)Oc1cc(C(=O)O)cc2sc(N(C)[C@@H]3CC[C@H](OCc4c(-c5ccccc5OC(F)(F)F)noc4C4CC4)C3)nc12` [Example 6], in that order: below 100 nM and 67%.
`CN(c1ccc2cc(C(=O)O)ccc2n1)[C@@H]1CC[C@H](OCc2c(-c3ccccc3OC(F)(F)F)noc2C2CC2)C1` [Example 7]: the EC50 was below 100 nM and the Emax stood at 57%.
The matching figures for `CC(C)Oc1cc(C(=O)O)cc2sc(N[C@@H]3CC[C@H](OCc4c(-c5c(Cl)cccc5Cl)noc4C4CC4)C3)nc12` [Example 8]: below 100 nM and 99%.
In turn, `O=C(O)c1cc(F)c2nc(N[C@@H]3CC[C@H](OCc4c(-c5c(Cl)cccc5Cl)noc4C4CC4)C3)sc2c1` [Example 9] had an EC50 below 100 nM and an Emax of 104%.
The matching figures for `O=C(O)c1cc(F)c2nc(N[C@@H]3CCC(OCc4c(-c5ccccc5OC(F)(F)F)noc4C4CC4)C3)sc2c1` (stereo partly drawn) [Example 10]: below 100 nM and 81%.
The compound `CC(C)Oc1cc(C(=O)O)cc2sc(N[C@@H]3CC[C@H](OCc4c(-c5ccccc5OC(F)(F)F)noc4C4CC4)C3)nc12` [Example 11] showed an EC50 below 100 nM and an Emax of 92%.
For `CC(C)Oc1cc(C(=O)O)cc2sc(N[C@H]3CC[C@@H](OCc4c(-c5c(Cl)cccc5Cl)noc4C4CC4)CC3)nc12` [Example 14, 2-(((1s,4s)-4-((5-cyclopropyl-3-(2,6-dichlorophenyl)isoxazol-4-yl)methoxy)cyclohexyl)amino)-4-isopropoxybenzo[d]thiazole-6-carboxylic acid], in that order: below 100 nM and 84%.
As to `CC(C)Oc1cc(C(=O)O)cc2sc(N(C)[C@H]3CC[C@@H](OCc4c(-c5c(Cl)cccc5Cl)noc4C4CC4)CC3)nc12` [Example 15, 2-(((1s,4s)-4-((5-cyclopropyl-3-(2,6-dichlorophenyl)isoxazol-4-yl)methoxy)cyclohexyl)(methyl)amino)-4-isopropoxybenzo[d]thiazole-6-carboxylic acid], the EC50 was below 100 nM and the Emax is 65%.
In the case of `O=C(O)c1cc(F)c2nc(N[C@H]3CC[C@@H](OCc4c(-c5c(Cl)cccc5Cl)noc4C4CC4)CC3)sc2c1` [Example 16], the EC50 was 100 to 1000 nM and the Emax amounted to 24%.
For `CC(C)Oc1cc(C(=O)O)cc2sc(N[C@H]3CC[C@@H](OCc4c(-c5ccccc5OC(F)(F)F)noc4C4CC4)CC3)nc12` [Example 17], in that order: below 100 nM and 91%.
For `O=C(O)c1ccc2nc(N[C@H]3CC[C@@H](OCc4c(-c5c(Cl)cccc5Cl)noc4C4CC4)CC3)sc2c1` [Example 18], in that order: below 100 nM and 52%.
`O=C(O)c1ccc2nc(N[C@@H]3CCC(OCc4c(-c5c(Cl)cccc5Cl)noc4C4CC4)C3)sc2c1` (stereo partly drawn) [Example 19] registered a half-maximal effective concentration (EC50) of 100 to 1000 nM and an Emax of 116%.
The matching figures for `CC(C)Oc1cc(C(=O)NS(=O)(=O)C2CC2)cc2sc(N[C@@H]3CCC(OCc4c(-c5c(Cl)cccc5Cl)noc4C4CC4)C3)nc12` (stereo partly drawn) [Example 20]: 100 to 1000 nM and 111%.
